Measured values from US20060154942A1, “Quinazolinone derivatives useful as anti-hyperalgesic agents” (priority 2002, published 2006).

melting point: 326 to 330 °C
Compound: CC(C)c1cc2nc(N)[nH]c(=O)c2cc1-c1ccc(Cl)cc1 [Example 59, 2-Amino-6-(4-chlorophenyl)-7-isopropyl-3H-quinazolin-4-one]
